Entries after “also recorded” stand apart in the source; their conditions may differ. Positions of bridges follow the written chain, without caps; N, C: chain ends. Non-standard residues stand in square brackets, D forms with d. Residues, ends and D or L forms follow the SMILES beside them. *: point of attachment. FITC = O=C1OC2(c3ccc(O)cc3Oc3cc(O)ccc32)c2ccc(NC(=S)*)cc21; PEG6 = NCCOCCOCCOCCOCCOCCOCCC(=O)O; S5 = C=CCCC[C@](C)(N)C(=O)O
Experiments:
HeLa pLuc 705 cells [1] = assay: Flow cytometry uptake of FITC labeled CPAs (FL1+ cells, MFI); type: cell-based; settings: 4 hours; for number of FL1 positive cells, cyclized vs non-cyclised (NC) peptide: cyclised peptide compared to its non-cyclised control
Description: (§1) HeLa pLuc705 cells were cultured in high glucose DMEM supplemented with 10% foetal calf serum (Sigma, UK) at 37° C. under an 8% CO2/92% air atmosphere.
(§2) HeLa pLuc705 cells were setup in 96 well plates with the appropriate dilutions of test compounds either FITC labeled peptides or FITC labeled PMO conjugates diluted into complete culture media (up to 100 µM). Cells were then then trypsinised, diluted to 4×10^5 cells per mL and 100 μL added to each well giving a final volume of 200 μL in each well. Cells were then incubated for either 4 or 24 hours at either 4 or 37° c.
(§3) Uptake of fluorescently-labelled PMO and peptides was determined by flow cytometry using an Accuri C6 flow cytometer. Cells were washed with PBS and glycine buffer then released with trypsin, and kept on ice before analysis in PBS containing 2.5% FBS. Cell fluorescence in single live cells was determined using FlowJo software after appropriate gating. Untreated cells were used to establish gating settings for the determination of the % fluorescein-positive cells, mean fluorescent intensity (MFI) was also calculated. Uptake was determined by gating cells that were able exclude cell-impermanent die (To-pro-3) indicating the ability of cells to retain membrane integrity.

HeLa pLuc 705 cells [2] = assay: % viable cells judged by gated cells compared to negative controls (flow cytometry); type: cell-based
Description: as §1, §2, §3

SMILES	MFI compared between RCM1,5 charge variants (HeLa pLuc 705 cells [1]; at a given concentration, increase for 3+ at higher concentrations >1 μM)	FL1+ cells compared to other RCM1,5 charge variants (HeLa pLuc 705 cells [1]; over a range of concentrations)	viable cells over RCM1,5-CP8M-FITC-3+ and RCM1,5-CP8M-FITC-2+ (HeLa pLuc 705 cells [2]; 0.05 μM, 4 hours)	MFI, cyclised vs non-cyclised (NC) peptide (HeLa pLuc 705 cells [1]; 2 way ANOVA)	number of FL1 positive cells, cyclized vs non-cyclised (NC) peptide (HeLa pLuc 705 cells [1]; 2 way ANOVA)	number of FL1 positive cells, cyclized vs non-cyclised (NC) peptide (HeLa pLuc 705 cells [1]; 2 way ANOVA, listed as K1E5-CP8M-FITC)	% cell viability compared to RCM1,5-P8M-FITC-3+ (HeLa pLuc 705 cells [2]; 4 hours, all concentrations)	% of cells recovered when normalized to untreated controls (% viable cells) (HeLa pLuc 705 cells [2]; 4 hours, cyclised versus non-cyclised peptide)	cellular toxicity / impact on cell viability (HeLa pLuc 705 cells [2]; all concentrations 0.05 to 100 μM, listed as K1E5-CP8M-FITC)	increase in viability comparing RCM1,5-P8M-FITC to K1E5-P8M-FITC (HeLa pLuc 705 cells [2]; over the range of concentrations (0.05 to 100 μM))
CC[C@H](C)[C@H](NC(=O)CCOCCOCCOCCOCCOCCOCCNC(=S)Nc1ccc2c(c1)C(=O)OC21c2ccc(O)cc2Oc2cc(O)ccc21)C(=O)N[C@H](C(=O)N[C@@H](Cc1ccccc1)C(=O)N[C@@]1(C)CCCC=CCCC[C@@](C)(C(N)=O)NC(=O)[C@H](Cc2ccccc2)NC(=O)[C@H](CC(C)C)NC(=O)[C@H]([C@@H](C)CC)NC1=O)[C@@H](C)CC [RCM1,5-P8M-FITC-0+] ({FITC-PEG6}-IIF[S5]ILF[S5]-NH2; staple 4-8)	no significant difference	increase	increase							
CC(C)C[C@@H]1NC(=O)[C@H](CCCNC(=N)N)NC(=O)[C@@H](NC(=O)[C@H](Cc2ccccc2)NC(=O)[C@H](CCCCN)NC(=O)[C@H](CCCNC(=N)N)NC(=O)CCOCCOCCOCCOCCOCCOCCNC(=S)Nc2ccc3c(c2)C(=O)OC32c3ccc(O)cc3Oc3cc(O)ccc32)CCC(=O)NCCCC[C@@H](C(N)=O)NC(=O)[C@H](Cc2ccccc2)NC1=O [K1E5-P8M-FITC] ({FITC-PEG6}-RKFERLFK-NH2; lactam 4-8; N-terminus assumed)				no interaction affect	no significant difference	no difference	increase	no significant difference	no adverse cellular toxicity; also recorded: do not have any negative impact	70-99%

From patent US20220062431A1, “COMPOUNDS COMPRISING STAPLED OR STITCHED PEPTIDES FOR IMPROVED DRUG DELIVERY” (Sutura Therapeutics Ltd, priority 2017, published 2022)
